Measured values: ChEMBL document CHEMBL4420076, “Amylin and calcitonin receptor agonist” (2017)
Numbered stars: 1 amine (or outer) side, 2 acyl side, 3 side chain; on linkers, the order of the positions; unused ones are H or OH. Peptide text beside a SMILES is read from it. * marks the point of attachment. C20 diacid = O=C(O)CCCCCCCCCCCCCCCCCCC(=O)*; γGlu = O=C(O)[C@H](CCC(=O)[*:2])N[*:1]; AEEA = NCCOCCOCC(=O)O

What was measured:
[1] = Solubility in 100 mM glycylglycine buffer at pH 4.0 incubated for 18 hrs by UPLC analysis; assay type: physicochemical
[2] = Stability in pH 7.5 buffer assessed as lag time for fibril formation at 1 uM by Thioflavin T based fluorescence assay; assay type: physicochemical; details: pH 7.5, 1 µM
Calcitonin receptor [3] = target: T1, Calcitonin receptor (Homo sapiens, UniProt P30988); assay: Agonist activity at human calcitonin receptor expressed in BHK570 cells assessed as increase in intracellular cAMP concentration incubated for 3 hrs in absence of albumin by CRE luciferase reporter gene assay; assay type: functional, cell-based
T1 sequence (P30988 whole entry): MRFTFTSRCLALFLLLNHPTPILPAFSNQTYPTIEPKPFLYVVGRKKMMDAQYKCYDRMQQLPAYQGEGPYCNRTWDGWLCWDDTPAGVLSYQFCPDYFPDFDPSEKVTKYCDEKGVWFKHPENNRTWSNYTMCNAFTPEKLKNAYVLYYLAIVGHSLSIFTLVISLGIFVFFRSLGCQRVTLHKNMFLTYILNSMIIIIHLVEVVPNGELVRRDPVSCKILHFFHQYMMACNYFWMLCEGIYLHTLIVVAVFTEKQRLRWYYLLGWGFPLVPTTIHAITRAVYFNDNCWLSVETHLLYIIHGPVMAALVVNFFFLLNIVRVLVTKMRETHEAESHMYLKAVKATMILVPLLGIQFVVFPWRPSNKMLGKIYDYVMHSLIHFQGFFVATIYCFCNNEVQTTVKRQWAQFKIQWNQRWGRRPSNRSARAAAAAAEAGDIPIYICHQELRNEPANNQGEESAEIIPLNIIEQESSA

[4] = target: T2, Amylin receptor AMY3; CALCR/RAMP3 (Homo sapiens, UniProt O60896+P30988); assay: Agonist activity at human amylin receptor expressed in BHK570 cells co-expressing RAMP3 assessed as increase in intracellular cAMP concentration incubated for 3 hrs in absence of albumin by CRE luciferase reporter gene assay; assay type: functional, cell-based
T2 sequence (P30988 whole entry): T1 sequence (P30988 whole entry)
T2 sequence (O60896 whole entry): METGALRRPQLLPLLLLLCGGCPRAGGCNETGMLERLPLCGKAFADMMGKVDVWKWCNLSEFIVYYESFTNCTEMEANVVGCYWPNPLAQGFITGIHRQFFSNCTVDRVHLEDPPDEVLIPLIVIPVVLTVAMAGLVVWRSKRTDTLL

[5] = target: T2, Amylin receptor AMY3; CALCR/RAMP3; assay: Displacement of [125I]-labeled rat amylin from human amylin receptor expressed in BHK570 cell membranes co-expressing RAMP3 incubated for 120 mins by scintillation proximity assay
[6] = Solubility in 100 mM glycylglycine buffer at pH 5.0 incubated for 18 hrs by UPLC analysis; assay type: physicochemical
[7] = target: T2, Amylin receptor AMY3; CALCR/RAMP3; assay: Displacement of [125I]-labeled rat amylin from human amylin receptor expressed in BHK tkts13 whole cells co-expressing RAMP3 incubated for 60 mins by scintillation proximity assay; assay type: cell-based
[8] = Solubility in 100 mM glycylglycine buffer at pH 3.0 incubated for 18 hrs by UPLC analysis; assay type: physicochemical
[9] = Solubility in 100 mM bistrispropane buffer at pH 7.0 incubated for 18 hrs by UPLC analysis; assay type: physicochemical
Calcitonin receptor [10] = target: T1, Calcitonin receptor; assay: Displacement of [125I]-labeled human calcitonin from human calcitonin receptor expressed in BHK tkts13 cell membranes incubated for 1 hr by scintillation proximity assay
[11] = target: T2, Amylin receptor AMY3; CALCR/RAMP3; assay: Agonist activity at human amylin receptor expressed in BHK570 cells co-expressing RAMP3 assessed as increase in intracellular cAMP concentration incubated for 3 hrs in presence of 10% FBS by CRE luciferase reporter gene assay; assay type: functional, cell-based
Calcitonin receptor [12] = target: T1, Calcitonin receptor; assay: Displacement of [125I]-labeled human calcitonin from human calcitonin receptor expressed in BHK tkts13 whole cells incubated for 60 mins by scintillation proximity assay; assay type: cell-based
[13] = Solubility in 100 mM bistrispropane buffer at pH 8.0 incubated for 18 hrs by UPLC analysis; assay type: physicochemical
[14] = Solubility in 100 mM bistrispropane buffer at pH 6.5 incubated for 18 hrs by UPLC analysis; assay type: physicochemical
Calcitonin receptor [15] = target: T1, Calcitonin receptor; assay: Agonist activity at human calcitonin receptor expressed in BHK570 cells assessed as increase in intracellular cAMP concentration incubated for 3 hrs in presence of 10% FBS by CRE luciferase reporter gene assay; assay type: functional, cell-based
[16] = Solubility in 100 mM bistrispropane buffer at pH 7.5 incubated for 18 hrs by UPLC analysis; assay type: physicochemical
[17] = Stability in pH 7.5 buffer assessed as compound recovery at 1 uM by Thioflavin T based fluorescence assay; assay type: physicochemical; details: read-out: Drug recovery
[18] = Solubility in 100 mM bistrispropane buffer at pH 6.0 incubated for 18 hrs by UPLC analysis; assay type: physicochemical
Rattus norvegicus [19] = assay: Reduction in food intake in Sprague-Dawley rat at 3 nmol/kg measured 0 to 24 hrs post dose relative to control; assay type: functional; set-up: scale not given: the % may be the effect or the level left
Rattus norvegicus [20] = assay: Reduction in food intake in Sprague-Dawley rat at 3 nmol/kg measured 24 to 48 hrs post dose relative to control; assay type: functional; set-up: scale not given: the % may be the effect or the level left
[21] = target: T3, Amylin receptor AMY3; CALCR/RAMP3 (Rattus norvegicus, UniProt P32214+Q9JJ73); assay: Displacement of [125I]-labeled rat amylin from rat amylin receptor expressed in BHK tkts13 cell membranes co-expressing RAMP3 incubated for 120 mins by scintillation proximity assay
T3 sequence (P32214 whole entry): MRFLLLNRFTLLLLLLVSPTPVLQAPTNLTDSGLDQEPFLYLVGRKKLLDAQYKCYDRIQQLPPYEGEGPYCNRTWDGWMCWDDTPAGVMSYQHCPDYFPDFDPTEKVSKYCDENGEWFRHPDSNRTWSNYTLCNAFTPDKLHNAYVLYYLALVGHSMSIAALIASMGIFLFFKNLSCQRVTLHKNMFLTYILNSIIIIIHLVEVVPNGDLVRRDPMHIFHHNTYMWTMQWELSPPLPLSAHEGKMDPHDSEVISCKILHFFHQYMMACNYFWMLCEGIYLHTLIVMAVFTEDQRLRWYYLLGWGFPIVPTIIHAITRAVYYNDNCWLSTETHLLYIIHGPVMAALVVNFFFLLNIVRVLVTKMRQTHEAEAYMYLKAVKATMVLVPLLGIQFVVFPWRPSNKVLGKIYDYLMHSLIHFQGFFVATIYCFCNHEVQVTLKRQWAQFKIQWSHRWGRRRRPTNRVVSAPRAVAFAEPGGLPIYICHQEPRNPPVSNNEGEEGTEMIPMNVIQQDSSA
T3 sequence (Q9JJ73 whole entry): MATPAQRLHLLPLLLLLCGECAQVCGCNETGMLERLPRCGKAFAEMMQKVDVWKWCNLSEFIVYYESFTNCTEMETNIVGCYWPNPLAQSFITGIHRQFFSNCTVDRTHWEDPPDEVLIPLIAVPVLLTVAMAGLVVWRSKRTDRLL

| solubility at 18 h [1] [µM] | Time [2] [h] | EC50 (Calcitonin receptor [3]) [pM] | solubility at 18 h [6] [µM] | IC50 [7] [pM] | solubility at 18 h [8] [µM] | solubility at 18 h [9] [µM] | IC50 (Calcitonin receptor [10]) [pM] | EC50 [11] [pM] | IC50 (Calcitonin receptor [12]) [pM] | solubility at 18 h [13] [µM] | solubility at 18 h [14] [µM] | solubility at 18 h [16] [µM] | remaining at 1 µM [17] [%] | solubility at 18 h [18] [µM] | SMILES | other results |
| --- | --- | --- | --- | --- | --- | --- | --- | --- | --- | --- | --- | --- | --- | --- | --- | --- |
| ≥ 200 | > 45 | 11 | ≥ 200 | 432 | ≥ 200 | ≥ 200 | 50 | 68 | 352 | ≥ 200 | ≥ 200 | ≥ 200 | 100 | ≥ 200 | CC(C)C[C@H](NC(=O)[C@H](C)NC(=O)[C@H](C)NC(=O)[C@@H](NC(=O)[C@H](CO)NC(=O)[C@H](CC(C)C)NC(=O)[C@H](CCC(=O)O)NC(=O)[C@H](CO)NC(=O)[C@H](C)NC(=O)COCCOCCNC(=O)COCCOCCNC(=O)COCCOCCNC(=O)CC[C@H](NC(=O)CCCCCCCCCCCCCCCCCCC(=O)O)C(=O)O)[C@@H](C)O)C(=O)NCC(=O)N[C@@H](CCCNC(=N)N)C(=O)N[C@@H](CC(C)C)C(=O)N[C@@H](CO)C(=O)N[C@@H](C)C(=O)N[C@@H](CCC(=O)O)C(=O)N[C@@H](CC(C)C)C(=O)N[C@@H](Cc1cnc[nH]1)C(=O)N[C@@H](CCC(=O)O)C(=O)N[C@@H](CC(C)C)C(=O)N[C@@H](C)C(=O)N[C@H](C(=O)N[C@@H](CC(C)C)C(=O)N1CCC[C@H]1C(=O)N[C@@H](CCCNC(=N)N)C(=O)N[C@H](C(=O)N[C@@H](CCC(=O)O)C(=O)N[C@H](C(=O)NCC(=O)N[C@@H](CO)C(=O)NCC(=O)N[C@@H](CO)C(=O)N1CCC[C@H]1C(N)=O)[C@@H](C)O)[C@@H](C)O)[C@@H](C)O ({C20 diacid-γGlu-AEEA-AEEA-AEEA}-ASELSTAALGRLSAELHELATLPRTETGSGSP-NH2) | EC50 [4]: 18 pM; IC50 [5]: 164 pM; EC50 (Calcitonin receptor [15]): 25 pM |
| ≥ 200 | > 45 | 23 | ≥ 200 | 2610 | ≥ 200 | ≥ 200 | 70 | 67 | 2940 | ≥ 200 | ≥ 200 | ≥ 200 | 100 | ≥ 200 | CC(C)C[C@H](NC(=O)[C@H](C)NC(=O)[C@H](C)NC(=O)[C@@H](NC(=O)[C@H](CO)NC(=O)[C@H](CC(C)C)NC(=O)[C@H](CCC(=O)O)NC(=O)[C@H](CO)NC(=O)[C@H](C)NC(=O)CC[C@H](NC(=O)CCCCCCCCCCCCCCCCCCC(=O)O)C(=O)O)[C@@H](C)O)C(=O)NCC(=O)N[C@@H](CCCNC(=N)N)C(=O)N[C@@H](CC(C)C)C(=O)N[C@@H](CO)C(=O)N[C@@H](C)C(=O)N[C@@H](CCC(=O)O)C(=O)N[C@@H](CC(C)C)C(=O)N[C@@H](Cc1cnc[nH]1)C(=O)N[C@@H](CCC(=O)O)C(=O)N[C@@H](CC(C)C)C(=O)N[C@@H](C)C(=O)N[C@H](C(=O)N[C@@H](Cc1ccc(O)cc1)C(=O)N1CCC[C@H]1C(=O)N[C@@H](CCCNC(=N)N)C(=O)N[C@H](C(=O)N[C@@H](CCC(=O)O)C(=O)N[C@H](C(=O)NCC(=O)N[C@@H](CO)C(=O)NCC(=O)N[C@@H](CO)C(=O)N1CCC[C@H]1C(N)=O)[C@@H](C)O)[C@@H](C)O)[C@@H](C)O ({C20 diacid-γGlu}-ASELSTAALGRLSAELHELATYPRTETGSGSP-NH2) | Activity (Rattus norvegicus [19]): 45%; Activity (Rattus norvegicus [20]): 67%; IC50 [21]: 3990 pM |
